Results: patent publication US9896659B2, “Methods, kits, and compositions for stem cell self-renewal” (STOWERS INSTITUTE FOR MEDICAL RESEARCH, priority 2011, dated 2018)
“Also recorded” adds a separate entry of the source.

How the values were obtained:
LSK Flk2^− cells [1] = assay: 14-day ex vivo expansion of bone marrow MNCs in ST media with or without GSK3β inhibitor, FACS; type: cell-based, mouse; conditions: 14-day culture of MNCs; average; FIG. 26B (250 nM CHIR99021)
Protocol: For the experiments set forth in this Example, a particular HSC expansion media was used. This HSC expansion media consists of the following ingredients: (1) StemSpan Media (Stem Cell Technologies; Cat. No. 09600) (StemSpan Media consists of Iscove's-modified Dulbecco's medium (IMDM) supplemented with 1% bovine serum albumin, 10 μg/ml recombinant human insulin, 200 μg/ml iron-saturated transferrin, 0.1 mM 2-mercaptoethanol and 2 mM glutamine.); (2)10 μg/ml Heparin (Sigma; Cat. No. H-3149); (3) 0.5× Penicillin/Streptomycin (Sigma; Cat. No. P4333); (4) 10 ng/ml recombinant mouse (rm) or recombinant human (rh) Stem Cell Factor (SCF) (Biovision; Cat. No. 4328-10 or 4327-10, respectively); (5) 20 ng/ml rm or rh Thrombopoietin (Tpo) (Cell Sciences, Inc; Cat. No. CRT401B or CRT400B, respectively). CHIR99021 (250 nM) (Stemgent, Inc; Cat. No. 04-0004) may be added to this HSC expansion media as indicated.
Bone marrow cells were harvested from C57Bl/6 (CD45.2) mice and made into a single cell suspension by gently drawing through a 22 g needle several times. Mobilized peripheral blood or bone marrow from human patients was harvested at the University of Kansas Medical Center (Kansas City, Mo. USA). […] Mononuclear cells were isolated from mouse bone marrow using Histopaque 1077 (Sigma; Cat. No. 10771) and human blood or bone marrow using Ficoll-Paque PLUS (Stem Cell Technologies; Cat. No. 07917) according to the manufacturers' instructions. Cells were washed and resuspended in HSC expansion media. Cells were counted and a fraction of mononuclear cells (MNCs) were stained for lineage markers using CD3, CD4, CD8, B220, IgM, Mac-1, Gr1, and Ter119 antibodies along with Kit, Sca-1, and Flk2 for mouse HSC analysis or CD34 and CD38 for human HSC analysis. 1×10^6 cells/0.1 ml were stained at 4° C. for 30 minutes using 0.05 μg of antibody for each lineage marker and 0.2 μg for remaining antibodies. […] Frequency of putative HSCs (lineage negative, Sca-1^+, Kit^+, Flk-1^− for mouse or CD34^+, CD38^− cells for human) was determined by analyzing >3×10^6 cells per sample independently in triplicate. […]

LSK Flk2^− cells [2] = assay: 10-day culture of bone marrow MNCs with PI3K inhibitor, CHIR99021 or without insulin, expansion of LSK Flk2^− cells; type: cell-based, mouse; conditions: 10 days culture; 250 nM CHIR99021; NVP-BEZ235 at indicated concentrations
[3] = system: lethally irradiated CD45.1 recipient mice; assay: Competitive repopulation assay of 14-day cultures; type: in vivo, mouse; conditions: for Average repopulation: long-term engraftment (FIGS. 5 and 13)
Protocol: For the experimental results shown in FIG. 13A, sorted LSK Flk2^− cells and unsorted MNCs containing a known quantity of LSK Flk2^− cells (CD45.2^+) were cultured for 14 days in ST media with and without CHIR99021. The cultured product of 100 sorted or 5 unsorted LSK Flk2^− cells per mouse were transplanted into lethally irradiated recipients (CD45.1^+). 5 freshly isolated, unsorted LSK Flk2^− cells per mouse were transplanted into a separate group. 1×10^5 freshly isolated CD45.1^+ competitor/radioprotective cells were also added per mouse. Peripheral blood analysis of recipients at 16 weeks post-transplant depicts % chimerism.
(§1) Bone marrow mononuclear cells (MNCs) were fractionated and the concentration of lineage marker negative, Sca-1^+, c-Kit^+, Flk2^− (LSKF^−) cells was determined. MNCs containing a known quantity of LSKF^− cells were cultured for 14 days in media containing SCF and Tpo (ST), ST media with 250 nM CHIR99021 or ST media with 2 mM lithium chloride (LiCl) as indicated. After 14 days, the cellular product of these cultures was transplanted into lethally-irradiated recipients (10 Gray units) at a dosage corresponding to an original input into culture of MNCs containing 5 LSKF^− cells per mouse for each group. 1×10^5 competitor bone marrow cells congenic with the hosts (CD45.1^+) were included per mouse. At 4 weeks post-transplant, peripheral blood was collected from each transplant recipient, and donor vs. host derived hematopoietic cells were determined by FACS analysis.
as §1, with “At 16” for “At 4”
Cells were incubated at 37° C. with 5% CO2 and 5% O2 (balance N2) for 14 days. […]

[4] = system: lethally irradiated recipients; assay: Limiting-dilution competitive repopulating unit (CRU) assay; type: in vivo, mouse; conditions: CHIR99021 versus ST media (2/0.4)
Protocol: FIGS. 27A-C show ex vivo expansion of normal, long-term repopulating HSC. MNCs containing a known quantity of LSK Flk2^− cells were cultured for 14 days with and without CHIR99021. The cultured progeny of MNCs containing a pre-culture dosage of 0.1, 0.3 or 1.0 LSK Flk2^− cells were transplanted into lethally irradiated recipients along with 1×10^5 rescue/competitor cells (n=10 for each of 6 groups). Peripheral blood was analyzed at 16 weeks post-transplant and competitive repopulating unit (CRU) frequency was determined using L-Calc software (Stem Cell Technologies, Inc.) based on Poisson statistics (Zhang, C. C. & Lodish, H. F. Murine hematopoietic stem cells change their surface phenotype during ex vivo expansion. Blood, Vol. 105, pages 4314-4320 (2005); Miller, C. L. & Eaves, C. J. Expansion in vitro of adult murine hematopoietic stem cells with transplantable lympho-myeloid reconstituting ability. Proceedings of the National Academy of Sciences of the United States of America, Vol. 94, pages 13648-13653 (1997)). […] Peripheral blood was analyzed for percent donor repopulation at 16 weeks post-1°, 2°, and 3° transplant (upper panels) and percent mature donor-derived B, T and myeloid cells (lower panels). […]

Structure (SMILES): Cc1c[nH]c(-c2cnc(NCCNc3ccc(C#N)cn3)nc2-c2ccc(Cl)cc2Cl)n1 [CHIR99021]
- Increase in total number of LSK Flk2^− cells (LSK Flk2^− cells [1]): 93 fold
- Expansion of LSK Flk2^− cells (LSK Flk2^− cells [2]): increased the expansion
- Repopulation capacity of ex vivo expanded HSCs ([3]; 4 weeks post-transplant, 250 nM CHIR99021 or 2 mM LiCl in ST media, 14 days): enhance repopulation capacity of ex vivo expanded hematopoietic stem cells
- Long-term repopulation / engraftment of ex vivo expanded HSCs ([3]; 16 weeks post-transplant, 250 nM CHIR99021 or 2 mM LiCl in ST media, 14 days): enhance long-term repopulation capacity of ex vivo expanded hematopoietic stem cells; also recorded: enhances long-term engraftment of ex vivo expanded HSCs
- Average repopulation ([3]; 100 sorted putative HSCs cultured 14 days): 12.3%
- Average repopulation ([3]; unsorted MNC cultures, 14 days): 64.8%
- Increase of CRU frequency [4]: 5 fold
